Avg ka, Avg kd and Kd data for one compound are collected here from paper PMC8838415, “Discovery of Novel Pleuromutilin Derivatives as Potent Antibacterial Agents for the Treatment of MRSA Infection” (Molecules, 2022).

This assay concerns 50S ribosome. The experiment in a line: SPR interaction and affinity analysis. To be noted: 4 °C. It counts as binding, S. aureus ATCC 43300. In outline: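 50S subunit purified from S. aureus ATCC 43300 by sucrose cushion/gradient; compounds (100 μM in DMSO) photo-cross-linked on sensor chip. Ribosome flowed at 200–3200 nM in PBST pH 7.4, 4 °C, 600 s association, 360 s dissociation. KD = Kd/Ka from 1:1 Langmuir fit with mass transfer.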

For orientation: Kd means the free concentration of one partner at which half of the binding sites on the other are occupied at equilibrium, for simple one-to-one binding. `C=C[C@]1(C)C[C@@H](OC(=O)CNc2ccc(F)cc2)[C@]2(C)[C@H](C)CC[C@]3(CCC(=O)[C@H]32)[C@@H](C)[C@@H]1O` [Compound 9, 22-(4-Fluoroanilineyl)-22-deoxypleuromutilin]: under “1:1 Langmuir binding”, the Avg ka was determined as 417 M⁻¹ s⁻¹ and the Avg kd was 7.39e-06 s⁻¹. The compound further came in with a Kd (KD = Kd/Ka) of 17.7 nM.
